# Read-outs that look alike come from different tables or passages of the source.
# Assays:
# [1] = hemodynamics, plasma glucose and tolerability in conscious dogs; type: in vivo, dog; conditions: hydrogen-oxalate salt
# [2] = tested on: human PDE IV (neutrophils); test: TEST A: Human PDE Isoenzyme Inhibition Assay, type IV; type: biochemical
# Description: C2 H5 OH. For pharmacological experiments it should be diluted at least 1:10,000.]
# TEST A: Human PDE Isoenzyme Inhibition Assay
# All isoenzyme preparations are derived from human sources. Type III and IV preparations are obtained taking advantage of the predominance of type III isoenzymes in platelets and of type IV isoenzymes in neutrophils applying the following techniques:
# Neutrophils (type IV) and platelets (types II and III) are obtained from human blood and sonicated (Branson probe, 4×15 sec.). Human lung (types I and V) is obtained from patients undergoing surgery and homogenized using a Polytron homogenizer (two bursts of 30 sec).
# Isoenzyme preparations: PDE III and IV (substrate cAMP 1 μM) preparations consist of low-speed supernates of the platelet and neutrophil homogenates, respectively.
# [3] = tested on: PDE IV; test: inhibition of PDE IV added to plasma after administration to conscious dogs; type: in vivo; conditions: up to 0.3 mg/kg i.v. or 0.6 mg/kg p.o., hydrogen-oxalate salt
# [4] = tested on: cardiovascular effects; test: Doppler aortic flow test in the rabbit; type: in vivo; conditions: hydrogen-oxalate salt
# Description: Thus in a series of experiments using the Doppler aortic flow test in the rabbit [J. Pharmacol. Meth.
# [5] = tested on: SRS-A induced bronchoconstriction; test: TEST H experiment 2: Suppression of SRS-A Induced Bronchoconstriction (tracheal instillation, inhaled ovalbumin); type: in vivo, guinea pig (Dunkin-Hartley); conditions: Cavia porcellus, i.t., hydrogen-oxalate salt
# Protocol: TEST H: Suppression of SRS-A Induced Bronchoconstriction
# (§1) Guinea pigs (Dunkin-Hartley, male, 400-600 g) are anesthethized with phenobarbital (100 mg/kg i.p.) and pentobarbital (30 mg/kg i.p.) and paralyzed with gallamine (100 mg/kg i.m.) Animals are ventilated via a tracheal cannula (8 ml/kg, 1 Hz) with a mixture of air and oxygen (45:55 v/v). Blood pressure and heart rate are recorded at the carotid artery. Ventilation is monitored by a Fleisch flow transducer in line with the inspiratory circuit. When making measurements of flow, coincident pressure changes in the thorax are monitored directly via an intrathoracic trochar, permitting display of differential pressure relative to the trachea. From this information in relation to flow and differential pressure, resistance [R1 ] and compliance [Cdyn ] are calculated using a digital respiratory analyzer for each respiratory cycle.
# Test animals are passively sensitized 24 hrs. prior to testing by administration of homologous anti-ovalbumin antiserum (1 ml i.v.). […] Allergen challenge is achieved by administration of ovalbumin (OA) and the resultant bronchoconstrictor response is used as a functional read-out of SRS-A activity.
# 2) In the second, animals are challenged with OA (1.0 or 1.8 mg/ml inhaled over 60 breaths) and the effect of test compound, administered at varying dosage directly into the lung by tracheal instillation, is measured.
# [6] = tested on: TNFα secretion, THP-1 cells; test: TEST C: Inhibition of TNFα Secretion (THP-1 cells, γ-interferon/LPS); type: cell-based; conditions: Homo sapiens, LPS, γ-interferon, 40 hours, hydrogen-oxalate salt
# Protocol: TEST C: Inhibition of TNFα Secretion
# 900 μl THP-1 cells (0.5 10^6 cells together with 100 U γ-interferon/0.9 ml) are pipetted into 24 well culture plates and followed by 100 μl test substance. After 3 hours at 37° C. in 5% CO2 /95% air, 10 μl LPS 5 μg/ml is added and the incubation continued for a further 40 hours. Appropriate controls are also included. The media are then removed and clarified by centrifugation at 1000 g for 10 min. 1.0 ml digitonin 0.01% is added to the wells to lyse the cells which are loosened by scraping with a rubber policeman and left at 4° C. for 10 min. Lactate dehydrogenase measurements are then performed immediately and the samples stored at […] until the other determinations can be performed. The assays are: IL-1β (medium), TNF-α (medium), and DNA (lysates). IL-1β, and TNF-α assays are determined using commercially available ELISA kits.
# The method of Kapuscinski et al Anal. Biochem. (83, 252-257 (1977) is used to assay DNA. 300 μl samples of cell lysate in 0.01% digitonin are mixed with 750 μl tris-HCl buffer pH 7.0 (containing 13.2 mM Na2 SO4), 300 μl H2 O and 150 μl DAPI (4',6-diamidino-2-phenylindole.2HCl) 2 μg/ml. The fluorescence is then measured at 372 nm (excitation) and 454 nm (emission) using a Perkin Elmer 3000 fluorimeter. The samples are read against a standard curve of calf thymus DNA (0.5 to 10 μg/ml) run at the same time. […]
# [7] = tested on: human eosinophils; test: TEST B: Inhibition of Eosinophil Activation by fMLP (oxidative burst, chemiluminescence); type: cell-based; conditions: fMLP 1 μM, hydrogen-oxalate salt
# Protocol: TEST B: Inhibition of Eosinophil Activation by formyl-MetLeuPhe (fMLP)
# Purified human eosinophils (10^4 /well in 0.2 ml HBSS) are stimulated with fMLP (1 μM) in the presence of lucigenin (25 μM). Inhibition of the oxidative burst (measured as changes in chemiluminescence) is determined from dose response curves using the logistic equation.
# [8] = stock solution of the hydrogen-oxalate salt; type: physicochemical; conditions: 10% Tween in 80% abs. C2H5OH
# Protocol: [All experiments described below are suitably done using the hydrogen-oxalate salt of the test compound, e.g. compound of example 1. In the case of the example 1 compound a stable 30 mM stock solution of the hydrogen-oxalate salt may be prepared with 10% Tween in 80% abs. C2 H5 OH. For pharmacological experiments it should be diluted at least 1:10,000.]
# [9] = tested on: lymphocytes from the spleen of Balb/c and CBA mice; test: TEST L: Murine Mixed Lymphocyte Reaction; type: cell-based; conditions: Mus musculus, 120 h, thymidine incorporation, 5 days, hydrogen-oxalate salt
# Protocol: TEST L: Murine Mixed Lymphocyte Reaction
# Ca. 0.5×10^6 lymphocytes from the spleen of female (8-10 weeks) Balb/c mice are incubated for 5 days in 0.2 ml cell growth medium with ca. 0.5×10^6 lymphocytes from the spleen of female (8-10 weeks) CBA mice. Test substance is added to the medium at various concentrations. Activity is assessed by ability to suppress proliferation associated DNA synthesis as determined by incorporation of radiolabelled thymidine.
# [10] = tested on: methacholine induced bronchoconstriction; test: TEST J: Suppression of Methacholine (MeCH) Induced Broncho-Constriction in the Rhesus Monkey; type: in vivo; conditions: hydrogen-oxalate salt
# Protocol: TEST J: Suppression of Methacholine (MeCH) Induced Broncho-Constriction in the Rhesus Monkey
# Male rhesus monkeys (body weight 10.3-13.2 kg) are anesthetized with ketamine (20 mg/kg i.m., initial) and maintained with thiopental (8 mg/kg/h i.v.) via an indwelling catheter in the left saphenous vein, throughout the experimental procedure. Animals are allowed to breathe spontaneously, and are placed in the left lateral incumbent position. The larynx, eppiglottis and pharynx are anesthetized (topical xylocaine) allowing introduction and placement of a cuffed 4.5 mm pediatric endotracheal tube.
# MeCH is administered as an aerosol (saline vehicle: aerosol generated by a nebulizer operated under an airflow of 6 l/min, mean particle size of 3.5 μm) with a 2 minute exposure, tidal breathing. All tests employ a 0.6 mg/ml solution or 2.5 mg/ml solution in the case of poor MeCH responders. MeCH bronchoconstrictor tests are spaced 30 min apart, with administration of test substance (in a lactose vehicle suspension, 1 mg/ml, 1 ml administered under bronchoscopic control, 1 cm above the carina) 15 min prior to MeCH challenge.
# Test substance is administered in a cumulative manner. Bronchodilator activity is estimated as the % inhibition of bronchoconstrictor response to MeCH on resistance.
# [11] = tested on: bacterial endotoxin (LPS) induced airways obstruction and lethality; test: TEST E: Bacterial Endotoxin [LPS] Induced Lethality in the Guinea Pig; type: in vivo; conditions: 100/μg/kg/min.; hydrogen-oxalate salt
# Protocol: TEST E: Bacterial Endotoxin [LPS] Induced Lethality in the Guinea Pig
# Guinea-pigs are anesthetized by intraperitoneal injection of sodium phenobarbitone (100 mg/kg.) supplemented with sodium pentobarbitone (30 mg/kg) and paralyzed by intramuscular injection of gallamine (10 mg/kg). Animals are ventilated (8 ml/kg, 1 Hz) with a mixture of air and oxygen (40:60, v/v) via a tracheal cannula. Ventilation is monitored at the trachea by a pneumotachograph connected to a differential pressure transducer. […] Blood pressure and heart rate are recorded from the carotid artery using a pressure transducer and a cannula is introduced into the right jugular vein to allow intravenous infusion of test substance min prior to and concomitantly with infusion of LPS at a constant rate (3.0 ml/hr to give 10 mg/kg/hr) from an infusion pump. The left jugular vein is cannulated for administration of (±) propranolol (1 mg/kg) injected as an intravenous bolus. […] Experimental data is stored continuously and, on termination of an experiment, experimental traces or processed data are plotted.
# Infusion of [±propanolol] ensures consistent susceptibility to LPS. In anesthetized animals pre-treated with [±] propanalol, infusion of LPS in the above model induces progressive airway obstruction. Death consequential to endotoxin shock usually occurs within ca. 1 hr of terminating LPS infusion.
# [12] = tested on: SRS-A induced bronchoconstriction; test: TEST H experiment 1: Suppression of SRS-A Induced Bronchoconstriction (i.v. infusion); type: in vivo, guinea pig (Dunkin-Hartley); conditions: FPL 55712 10 mg/kg i.v.
# Protocol: as §1, with “TEST H: Suppression of SRS-A Induced Bronchoconstriction Guinea” for “Guinea”, “cycle. Test animals are passively sensitized 24 hrs. prior to testing by administration of homologous anti-ovalbumin antiserum (1 ml i.v.). […] Allergen challenge is achieved by administration of ovalbumin (OA) and the resultant bronchoconstrictor response is used as a functional read-out of SRS-A activity. […]” for “cycle.”
# [13] = tested on: SRS-A; test: TEST D: Inhibition of SRS-A Production (ovalbumin challenge); type: in vivo, guinea-pig; conditions: 10 mg/kg i.v. 1 minute prior to challenge
# Protocol: TEST D: Inhibition of SRS-A Production Guinea-pigs are passively sensitized 24 hrs. prior to testing by i.v. administration of 1 ml homologous anti-ovalbumin antiserum. Prior to antigen challenge test animals are pre-treated with 0.32 mg/kg propanol i.v. (inhibition of endogenous catecholamines), 3.2 mg/kg, i.v. mepyramine (H1 receptor antagonism) and 3.2 mg/kg, i.v. indomethacin (inhibition of cyclo-oxygenase). Allergen challenge is effected by administration of 32 μg/kg, ovalbumin i.v. and the resultant constrictor response on airways resistance used as a functional read out of SRS-A activity. Separate test groups receive 10 mg/kg, i.v. FPL 55712 (an LTD4 receptor antagonist) 1 minute prior to challenge or test substance at varying dosage, i.v. by infusion, beginning 16 minutes prior to challenge.
# [14] = up to 0.3 mg/kg i.v. or 0.6 mg/kg p.o.
smiles,measurement,setting,value
"CCc1cc2cc(OCCO)c(OC)cc2c(-c2cc(OC(C)C)cc(OC(C)C)c2)n1 [Example 1, 1-(3,5-diisopropoxyphenyl)-3-ethyl-6-(2-hydroxyethoxy)-7-methoxy-isoauinoline]",tolerability,[1]; all dosages,generally well tolerated
same,change in heart rate,[1]; [14],no or only minimal change
same,change in mean arterial pressure,[1]; [14],no or only minimal change
same,change in plasma glucose concentrations,[1]; [14],no or only minimal change
same,IC50,"[2]; TEST A, 1 μM [3H]-cyclic AMP substrate, hydrogen-oxalate salt",2.9 ± 1.2 nM
same,fold greater activity in inhibiting the type IV isoenzyme than other isoenzyme preparations tested,"[2]; type IV vs other isoenzyme preparations, hydrogen oxalate salt",at least 180 fold
same,inhibition of PDE IV added to plasma,[3],substantial and long-lasting inhibition
same,heart rate (rabbit),[4]; of the order of 1 mg/kg,only slight decrease in heart rate
same,cardiovascular side effects,[4]; up to the order of 0.3 mg/kg,no cardiovascular side effects
same,ED50,"[5]; ovalbumin 1 mg/ml, read-out: ED50 vs. ovalbumin @1 mg/ml",5 µg/kg
same,ED50,"[5]; ovalbumin 1.8 mg/ml, read-out: ED50 vs. ovalbumin @1.8 mg/ml",50 µg/kg
same,IC50,[6],~100 nM
same,IC50,[7],60 ± 30 nM
same,stable stock solution,[8],30 mM
same,IC50,[9],12 ± 9 nM
same,ED20,"[10]; Macaca mulatta, inhaled or nasal, MeCH aerosol, test substance in lactose suspension",0.0414 ± 0.0099 µg/kg
same,potency less than that of Albuterol (TEST J),[10]; times less potent than Albuterol,ca. 3.5 ×
same,lethality (TEST E),[11],no animals dying
same,protection (TEST E),[11],COMPLETE PROTECTION
CCCc1c(OCC(O)COc2ccc3c(=O)cc(C(=O)O)oc3c2CCC)ccc(C(C)=O)c1O (stereo not drawn) [FPL 55712],bronchoconstrictor effect of OA (experiment 1),[12],abolished
same,effect on bronchoconstriction (TEST D),[13],abolition of bronchoconstriction

# Source: patent US5747506A, “Isoquinoline compounds, compositions containing them and their pharmaceutical uses” (Novartis AG, priority 1993, dated 1998)
